In patent publication US10682310B2, “Therapeutic compounds and formulations for intranasal delivery” (priority 2015, dated 2020):
“And” between values parts separate entries of the source, which are not always exact repeats. Identical values can stand only once. Counter-ions that a name gives are not always drawn.

Experiments:
A.O. protease = test: Conversion of prodrug by A.O. protease on apical side of MDCKII-wt monolayers, supersaturated drug; format: in vitro ADME, Aspergillus Oryzae; conditions: for precipitates of supersaturated drug formed from prodrug/enzyme: apical compartment after prodrug/A.O. protease administration
Description: The same was also shown for MDZ-pro. The experiments were carried out as follows.
Appropriate molar concentrations of MDZ-pro equivalent to supersaturated MDZ solution were incubated with the converting enzyme in assay buffer, pH 7.4 at 32° C. (nasal temperature). Supersaturation potential, S, was calculated as the ratio between the molar concentration of administered MDZ-pro and the molar concentration of saturated MDZ:
Rapidly mixed solutions of chirally pure MDZ-pro and A.O protease were administered onto the apical side of MDCKII-wt monolayers and MDZ-pro, and MDZ concentrations were analyzed on both the apical and basal sides as a function of time. An example of prodrug and drug kinetics in the apical compartment is shown in FIG. 5b (MDZ-pro 326 μM, A.O. protease 16 U/mL). Rapid conversion of prodrug (complete within 30 min) was followed by an extended residence of supersaturated drug in the apical chamber, with supersaturation reached in less than 5 min. […] Apical concentrations of MDZ were close to those predicted, based on a two compartment model with input due to enzymatic conversion of MDZ-pro to MDZ, with assumed rate constant kconv=Vmax/KM.

[1] = system: A.O. protease (Aspergillus Oryzae); test: Enzyme kinetics of prodrug conversion by A.O. protease (HPLC, integrated Michaelis-Menten fit); format: biochemical; conditions: for Km / Vmax / conversion of prodrug to DZP: assay buffer pH 7.4, 32° C.; for extent of conversion by A.O. protease: chirally pure prodrug; for catalytic efficiency as Vmax/(U/mL of A.O. protease): pH 7.4, 32° C.; for conversion of prodrug to DZP: 480 μM prodrug, A.O. protease 2-8 U/mL
Description: Enzyme Kinetics. To determine the enzyme kinetic parameters KM and Vmax for a prodrug/enzyme system, various concentrations of prodrug were incubated in assay buffer, pH 7.4 containing A.O. protease, at 32° C., for a fixed time period t, at which point the reaction was stopped using methanol as an enzyme denaturant. […] The reactions were carried out to times when there was already substantial conversion. Concentrations of product, Cd(t) were fit against initial prodrug concentrations, Cp (0), using the integrated Michaelis-Menten equation: Cd(t)+KM ln[1−Cd(t)/Cp(0)]=Vmaxt (1) Fitting was carried out using the Matlab nlinfit function (Mathworks).
AVFm and AVFp (each at 480 μM) were incubated with A.O. protease (2-8 U/mL) in assay buffer over various time intervals in assay buffer pH 7.4 at 32° C.
The Michaelis Menten parameters for AVFp reactions were determined by carrying out reactions for t=5 min in solutions containing A.O. protease.
The extent of reaction was determined after t=12 min with MDZ-pro incubated, at different concentrations, in assay buffer with 4 U/ml A.O. protease.

MDCKII-wt monolayers = test: Monolayer intactness by TEER and Lucifer yellow permeability after 2 h exposure; conditions: A.O. protease 1-16 U/mL
Description: (§1) Following previously published procedures (Kapoor M, et al., AAPS J, 2014, 16, 3, 577-585; and Kapoor M, et al., Mol Pharm, 2013, 10, 9, 519-3524), Madin Darby canine kidney II wild type (MDCKII-wt: passages between 10 and 20) cells were cultured and grown as monolayers in 12-well Transwell plates ([…] pore size, polyester, Corning). Transepithelial electrical resistance (TEER) was measured to assure membrane integrity just prior to conversion/permeation experiments. TEER and a Lucifer yellow dye permeability assay were used to reassess monolayer integrity at the conclusion of each experiment.

MDCKII-wt monolayer = test: Membrane permeation across MDCKII-wt monolayers (Transwell)
Description: (§2) In vitro permeation studies were also performed on prodrug/enzyme mixtures prepared at various prodrug and enzyme concentrations. […] The experiments were carried out as follows. Maden Darby Canine Kidney-II wild type (MDCK-IIwt) cells were plated on thin membranes in a six well Transwell apparatus. Following confluence and washing, assay buffer (PBS, pH 7.4) was introduced into the basal side of the membrane. At time zero, solutions of various concentrations of prodrug were combined with 0.25 U/ml of A.O protease and introduced on the […] side of the membrane. Aliquots were then taken, with replacement, from both the basal and apical sides, and assayed for both drug and prodrug. The integrity of the membranes throughout the experiment was confirmed by transepithelial resistance (TEER) and inulin permeation measurements.
as §1
(§3) In separate experiments, solutions containing 900 μM AVFp or AVFm were rapidly mixed with A.O. protease (4 U/mL) in assay buffer (pH 7.4 at 32° C.), and administered at time zero on the apical side of MDCKII-wt monolayers cultured in a 12-well Transwell plate (Kapoor M, et al., AAPS J, 2014, 16, 3, 577-585; and Kapoor M, et al., Mol Pharm, 2013, 10, 9, 519-3524).
(§4) To assess transport of MDZ through the MDCKII-wt monolayer membrane, MDZ, 55 μM (S=1) was introduced on the apical side of the monolayer in a 12-well Transwell, and accumulation of MDZ on the basal side was assayed as a function of time.

[2] = MDZ equilibrium solubility in assay buffer; format: physicochemical; conditions: aqueous buffer, thermodynamic from solid; assay buffer pH 7.4, 32° C.
Description: Equilibrium solubility of MDZ in assay buffer was determined at three temperatures: 25, 32 and 37° C. There was essentially no effect of temperature on drug thermodynamic solubility within this temperature range.

[3] = Membrane permeation across MDCKII-wt monolayers (Transwell); conditions: dog, MDCK
Description: as §2, §1, §3, §4

[4] = MDZ-pro 326 μM, A.O. protease 16 U/mL, apical compartment
[5] = MDZ-pro to MDZ, 4 U/ml A.O. protease, t=12 min, estimates (s.e.m.)
[6] = AVFp to DZP, 0.25 U/ml A.O. protease, t=5 min

SMILES: Cc1ncc(CNC(=O)[C@@H](N)CCCCN)n1-c1ccc(Cl)cc1C(=O)c1ccccc1F [MDZ-pro, Midazolam L-Lysine Prodrug]
- time to complete conversion of prodrug (A.O. protease; [4]): ≤ 30 min
- time to reach supersaturation (A.O. protease; [4]): less than 5 min
- Km [1, 5]: 5.86 ± 0.83 mM
- Vmax [1, 5]: 0.233 ± 0.022 mM/min
- extent of conversion by A.O. protease [1]: complete conversion
- catalytic efficiency as Vmax/(U/mL of A.O. protease) [1]: 0.0582 mM/min/(U/ml)
- % TEER values (MDCKII-wt monolayers): unaffected
- conversion via endogenous enzymes (MDCKII-wt monolayer; MDZ-pro alone (without enzyme), apical, 2 h, up to 2 mM): negligible conversion
- prodrug permeation through MDCKII-wt monolayers (MDCKII-wt monolayer; MDZ-pro alone (without enzyme), apical, 2 h, up to 2 mM initial prodrug concentration): negligible prodrug permeation

SMILES: CN(C(=O)CNC(=O)[C@@H](N)CCCCN)c1ccc(Cl)cc1C(=O)c1ccccc1 [AVF, Avizafone]
- permeation of prodrug across the membrane (MDCKII-wt monolayer; AVF/enzyme administered on the apical side): not to permeate the membrane significantly
- permeation of prodrug across the monolayer (MDCKII-wt monolayer; in the absence of enzyme, AVF pure or mix (data not shown)): negligible permeation

SMILES: CN(C(=O)CNC(=O)[C@@H](N)CCCCN)c1ccc(Cl)cc1C(=O)c1ccccc1 [AVFp, Avizafone Hydrochloride]
- conversion of prodrug to DZP ([1]; Hydrochloride): 100%
- Km [1, 6]: 3.38 ± 0.34 mM
- Vmax [1, 6]: 0.518 ± 0.030 mM/min
- extent of conversion by A.O. protease [1]: complete conversion
- catalytic efficiency as Vmax/(U/mL of A.O. protease) [1]: 2.07 mM/min/(U/ml)
- rate and amount of DZP permeation compared with enantiomeric mixture AVFm (MDCKII-wt monolayer; 900 μM prodrug, A.O. protease 4 U/mL, apical, pH 7.4, 32° C., each time point): greater

SMILES: CN1C(=O)CN=C(c2ccccc2)c2cc(Cl)ccc21 [DZP, diazepam]
- precipitates of supersaturated drug formed from prodrug/enzyme (A.O. protease): no evidence of formation of DZP precipitates

SMILES: CN(C(=O)CNC(=O)[C@@H](N)CCCCN)c1ccc(Cl)cc1C(=O)c1ccccc1 [AVFm]
- conversion of prodrug to DZP [1]: ~70%

SMILES: Cc1ncc2n1-c1ccc(Cl)cc1C(c1ccccc1F)=NC2 [MDZ, midazolam]
- solubility thermodynamic [2]: 55 µM and 15.5 µg/mL
- precipitates of supersaturated drug formed from prodrug/enzyme (A.O. protease): none were found
- % TEER values (MDCKII-wt monolayers): unaffected
- Papp A→B at 55 μM [3]: 26.5 ×10⁻⁶ cm/s
- clearance CL of the membrane (MDCKII-wt monolayer; MDZ 55 μM (S=1) apical, 12-well Transwell, two compartment model fit): 0.11 ± 0.01 mL/h
